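In this assay, cells in 96-well plates receive the compound at five concentrations for 48 hours. Endpoints are linearly interpolated between the surrounding concentrations. GI50: concentration for 50% inhibition of growth.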 Calls of active or inactive are those of the source. Rule as the data show it: active = GI50 up to about 1.1 µM and inactive = higher. Where only a bound is given, the exact number is not on record here.

Experimental findings from ChEMBL document CHEMBL1201862, “PubChem BioAssay data set” (2004) are described below.

Test systems include HL-60; Malme-3M; OVCAR-3; SK-MEL-5; SF-539; RXF 393; IGROV-1; SF-268; EKVX; HT-29; PC-3; HCC 2998; SF-295; UACC-257; MCF7; MOLT-4; MDA-MB-435; BT-549; HCT-15; OVCAR-8.
Experiment in all cases: DTP human tumour cell line panel, 48 h

A word on the GI50: it is the concentration that inhibits growth by half. Take `CC(=O)NC(C)(C)C1CCC(C)CC1` (stereo not given): the GI50 in the assay with HL-60, in the assay with Malme-3M, with OVCAR-3, in the assay with SK-MEL-5, in the assay with SF-539 and in the assay on RXF 393 was > 100 µM (inactive) throughout. Besides, the GI50 in the assay on IGROV-1, with SF-268, in the assay with EKVX, in the assay with HT-29, in the assay on PC-3 and with HCC 2998 was > 100 µM (inactive) throughout. Moreover, the GI50 with SF-295, in the assay with UACC-257, in the assay on MCF7, in the assay with MOLT-4, with MDA-MB-435 and with BT-549 was > 100 µM (inactive) each time. Further, the figures for the GI50 in the assay on HCT-15 and in the assay on OVCAR-8 were over 100 µM and > 100 µM (inactive), respectively.
Consider `COc1cccc(C2c3cc4c(cc3OC(NNc3ccccc3)C2C)OCO4)c1O` (stereo not given), for which the GI50 with HL-60 was 4.48 µM (inactive); in the assay on Malme-3M, 4.66 µM (inactive); with OVCAR-3 it was 2.71 µM (inactive); with SK-MEL-5, 6.21 µM (inactive); in the assay with SF-539, 3.18 µM (inactive); with RXF 393, 12.9 µM (inactive). For the same compound, the GI50 in the assay on IGROV-1 is 5.47 µM (inactive); in the assay on SF-268, 12.2 µM (inactive); in the assay on EKVX it was 4.88 µM (inactive); in the assay with HT-29 it was 10.9 µM (inactive); in the assay with PC-3, 4.76 µM (inactive); in the assay on HCC 2998 it was 2.08 µM (inactive). Moreover, the GI50 with SF-295 is 2.06 µM (inactive); in the assay on UACC-257 it was 4.57 µM (inactive); in the assay with MCF7, 4.67 µM (inactive); in the assay on MOLT-4, 4.17 µM (inactive); in the assay on MDA-MB-435 it was 2.59 µM (inactive); with BT-549, 7.18 µM (inactive). The GI50 in the assay with HCT-15 is 1.62 µM; with OVCAR-8 it was 2.47 µM (inactive).
Regarding `O=P1(C(O)c2ccccc2)N(Cc2ccccc2)[C@@H]2CCCC[C@H]2N1Cc1ccccc1` (stereo not given in full), the GI50 in the assay with HL-60 is 22.3 µM (inactive); in the assay on Malme-3M, 30.7 µM (inactive); in the assay with OVCAR-3, 31.2 µM (inactive); in the assay on SK-MEL-5 it was 30.3 µM (inactive); with SF-539, 21.5 µM (inactive); in the assay on RXF 393, 31.4 µM (inactive). The GI50 in the assay with IGROV-1 was 28.6 µM (inactive); with SF-268, 25.6 µM (inactive); in the assay with EKVX it was 30.5 µM (inactive); with HT-29, 15 µM (inactive); in the assay on PC-3 it was 24.5 µM (inactive); with HCC 2998, 20 µM (inactive). Besides, the GI50 is 23.6 µM (inactive) in the assay with SF-295; 21.4 µM (inactive) with UACC-257; 34.6 µM (inactive) with MCF7; 19.6 µM (inactive) in the assay with MOLT-4; 23.2 µM (inactive) in the assay with MDA-MB-435; 50.2 µM (inactive) in the assay on BT-549. In addition, the GI50 in the assay on HCT-15 was 34.5 µM; with OVCAR-8, 31 µM (inactive).
Turning to `C[C@]12CC[C@H]3[C@@H](CCC4=C[C@@H](N5CCCC5)CC[C@@]43C)[C@@H]1C/C(=C\c1ccncc1)[C@@H]2O`, the GI50 with HL-60 is 16 µM (inactive); in the assay on Malme-3M it was 13.6 µM (inactive); in the assay with OVCAR-3 it was 16.4 µM (inactive); with SK-MEL-5 it was 12 µM (inactive); in the assay with SF-539 it was 9.35 µM (inactive); in the assay on RXF 393 it was 5.16 µM (inactive). The GI50 in the assay on IGROV-1 is 20.6 µM (inactive); with SF-268, 16.5 µM (inactive); in the assay on EKVX, 15.7 µM (inactive); with HT-29, 0.631 µM (active); in the assay on PC-3 it was 13.6 µM (inactive); with HCC 2998, 5.07 µM (inactive). Further, the GI50 with SF-295 was 4.91 µM (inactive); in the assay with UACC-257, 6.19 µM (inactive); in the assay with MCF7 it was 12.8 µM (inactive); with MOLT-4, 7.73 µM (inactive); in the assay on MDA-MB-435 it was 10.3 µM (inactive); in the assay on BT-549 it was 18.3 µM (inactive). Moreover, the GI50 with HCT-15 is 8.43 µM; in the assay with OVCAR-8, 24.9 µM (inactive).
In the case of `CCC(=O)Nc1ccc(N2C(=O)/C(=C/c3ccc(O)c(OC)c3)N=C2c2ccccc2)cc1`, the GI50 in the assay on HL-60 was 24 µM (inactive); in the assay on Malme-3M it was 29.8 µM (inactive); in the assay on OVCAR-3, 28.3 µM (inactive); with SK-MEL-5, 14.3 µM (inactive); in the assay with SF-539, 84.1 µM (inactive); in the assay with RXF 393, 10.9 µM (inactive). The GI50 in the assay on IGROV-1 was 31.1 µM (inactive); in the assay with SF-268 it was 27 µM (inactive); with EKVX, 17.8 µM (inactive); with HT-29, 33.7 µM (inactive); in the assay on PC-3, 16.5 µM (inactive); in the assay with HCC 2998, 21 µM (inactive). Also, the GI50 is 19.9 µM (inactive) in the assay on SF-295; 26.7 µM (inactive) in the assay with UACC-257; 31.6 µM (inactive) in the assay on MCF7; 11.3 µM (inactive) in the assay with MOLT-4; 29.5 µM (inactive) in the assay with MDA-MB-435; 20.4 µM (inactive) with BT-549. The GI50 was 21.3 µM in the assay with HCT-15 and 44.5 µM (inactive) in the assay on OVCAR-8.
On to `CN(C)CCNC(=O)c1c(O)ccc2c1c1c(n2CCc2ccccc2)C(=O)c2ccccc2C1=O`, for which the GI50 was 9.18 µM (inactive) with HL-60; 3.63 µM (inactive) in the assay on Malme-3M; 12.9 µM (inactive) with OVCAR-3; 2.96 µM (inactive) in the assay with SK-MEL-5; 5.37 µM (inactive) with SF-539; 0.302 µM (active) in the assay on RXF 393. Besides, the GI50 is 8.47 µM (inactive) with IGROV-1; 4.15 µM (inactive) in the assay with SF-268; 14.6 µM (inactive) with EKVX; 6.82 µM (inactive) in the assay on HT-29; 12 µM (inactive) in the assay with PC-3; 1.22 µM (inactive) in the assay with HCC 2998. For the same compound, the GI50 was 4.06 µM (inactive) with SF-295; 5.37 µM (inactive) in the assay with UACC-257; 3.37 µM (inactive) with MCF7; 4.42 µM (inactive) in the assay with MOLT-4; 2.17 µM (inactive) in the assay on MDA-MB-435; 16.1 µM (inactive) in the assay on BT-549. Also, the GI50 with HCT-15 was 4.47 µM; in the assay with OVCAR-8, 8.36 µM (inactive).
With `COc1ccc(-c2c(C#N)c(=O)nc(SC)n2C2OCC(OC(C)=O)C(OC(C)=O)C2OC(C)=O)cc1` (stereo not given), the GI50 with HL-60 is 22.2 µM (inactive); in the assay on Malme-3M, > 100 µM (inactive); in the assay with OVCAR-3, > 100 µM (inactive); in the assay on SK-MEL-5 it was 45 µM (inactive); in the assay with SF-539, > 100 µM (inactive); in the assay on RXF 393, > 100 µM (inactive). Also, the GI50 in the assay on IGROV-1 is > 100 µM (inactive); in the assay on SF-268, 55 µM (inactive); in the assay with EKVX, 87.5 µM (inactive); with HT-29 it was 56 µM (inactive); in the assay with PC-3 it was 47.3 µM (inactive); in the assay with HCC 2998, > 100 µM (inactive). For the same compound, the GI50 with SF-295 is > 100 µM (inactive); in the assay on UACC-257, > 100 µM (inactive); with MCF7 it was > 100 µM (inactive); in the assay with MOLT-4, 21.3 µM (inactive); with MDA-MB-435, > 100 µM (inactive); with BT-549, 68.2 µM (inactive). Besides, the GI50 with HCT-15 is 34.8 µM; with OVCAR-8, 90.6 µM (inactive).
